Results taken from US20230059136A1, “THE COMPOUNDS AND COMPOSITIONS FOR TREATING CONDITIONS ASSOCIATED WITH NLRP ACTIVITY” (Novartis AG, priority 2018, published 2023).

tested on: IL-1β production in PMA-differentiated THP-1 cells; experiment: IL-1β production in PMA-differentiated THP-1 cells stimulated with gramicidin (hTHP-1 assay containing 2% fetal bovine serum); format: cell-based, human; details: Homo sapiens, THP-1, Table B1; 2% fetal bovine serum; cells printed as numeric bound; read-out: hTHP-1 IC50 (Average IC50 of compounds in hTHP-1 assay)
Method in brief: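 IL-1β release was read by HTRF on supernatants of 50,000 PMA-primed (20 ng/ml, 16-18 h) THP-1 cells/well in 2% FBS medium. Cells saw compound for 1 h (11-point titration from 100 μM, 0.37% DMSO) before a 2 h gramicidin (5 μM) challenge.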

Structure (SMILES)	IC50
CC(C)c1cc(COC2CCCC2)cc(C(C)C)c1CC(=O)N=S(N)(=O)c1cnc(C(C)(C)O)s1 (single isomer, unassigned) [Example 288, (S) or (R)-N-(amino(2-(2-hydroxypropan-2-yl)thiazol-5-yl)(oxo)-λ^6-sulfaneylidene)-2-(4-((cyclopentyloxy)methyl)-2,6-diisopropylphenyl) acetamide]	> 30 µM
CCc1cc2c(c(C(C)C)c1CC(=O)N=S(N)(=O)c1cnc(C(C)(C)O)s1)COC2 (single isomer, unassigned) [Example 292, (S) or (R)-N-(amino(2-(2-hydroxypropan-2-yl)thiazol-5-yl)(oxo)-λ^6-sulfaneylidene)-2-(6-ethyl-4-isopropyl-1,3-dihydroisobenzofuran-5-yl)acetamide]	> 30 µM
CC(C)c1cc2c(c(C(C)C)c1CC(=O)N=S(N)(=O)c1cccc(C(C)(C)O)c1)COC2 (single isomer, unassigned) [Example 304, (S) or (R)-N-(amino(3-(2-hydroxypropan-2-yl)phenyl)(oxo)-λ^6-sulfaneylidene)-2-(4,6-diisopropyl-1,3-dihydroisobenzofuran-5-yl)acetamide]	> 30 µM
CC(C)c1cc(C(F)F)nc(C(C)C)c1CC(=O)N=S(N)(=O)c1sc(CN(C)C)cc1F (single isomer, unassigned) [Example 305, (S) or (R)-N-(amino(5-((dimethylamino)methyl)-3-fluorothiophen-2-yl) (oxo)-λ^6-sulfaneylidene)-2-(6-(difluoromethyl)-2,4-diisopropylpyridin-3-yl)acetamide]	> 30 µM
CC(C)c1cc2c(c(C(C)C)c1CC(=O)N=S(N)(=O)c1sc(CN(C)C)cc1F)COC2 (single isomer, unassigned) [Example 308, (S) or (R)-N-(amino(5-((dimethylamino)methyl)-3-fluorothiophen-2-yl)(oxo)-λ^6-sulfaneylidene)-2-(4,6-diisopropyl-1,3-dihydroisobenzofuran-5-yl)acetamide]	> 30 µM
CC(C)c1cc2c(c(C(C)C)c1CC(=O)N=S(N)(=O)c1cnn3c1OCCC3)COC2 (single isomer, unassigned) [Example 309, (S) or (R)-N-(amino (6,7-dihydro-5H-pyrazolo[5,1-b][1,3]oxazin-3-yl)(oxo)-λ^6-sulfaneylidene)-2-(4,6-diisopropyl-1,3-dihydroisobenzofuran-5-yl)acetamide]	> 30 µM

The remaining lines, values ahead:

IC50	Structure (SMILES)
> 30 µM	CCc1c2c(cc(C(C)C)c1CC(=O)N=S(N)(=O)c1cnc(C(C)(C)O)s1)COC2 (single isomer, unassigned) [Example 290, (S) or (R)-N-(amino(2-(2-hydroxypropan-2-yl)thiazol-5-yl)(oxo)-λ^6-sulfaneylidene)-2-(4-ethyl-6-isopropyl-1,3-dihydroisobenzofuran-5-yl)acetamide]
> 30 µM	CCc1cc2c(c(C(C)C)c1CC(=O)N=S(N)(=O)c1cc(C(C)(C)O)cs1)COC2 (single isomer, unassigned) [Example 296, (S) or (R)-N-(amino(4-(2-hydroxypropan-2-yl)thiophen-2-yl)(oxo)-λ^6-sulfaneylidene)-2-(6-ethyl-4-isopropyl-1,3-dihydroisobenzofuran-5-yl)acetamide]
> 30 µM	CC(C)c1cc2c(c(C(C)C)c1CC(=O)N=S(N)(=O)c1ccc(C(C)(C)O)cc1)COC2 (single isomer, unassigned) [Example 302, (S) or (R)-N-(amino(4-(2-hydroxypropan-2-yl)phenyl)(oxo)-λ^6-sulfaneylidene)-2-(4,6-diisopropyl-1,3-dihydroisobenzofuran-5-yl)acetamide]

same assay, conditions: Homo sapiens, THP-1, Table B1; 2% fetal bovine serum; class symbols; read-out: hTHP-1 IC50 (Average IC50 of compounds in hTHP-1 assay)

Structure (SMILES)	IC50
CCc1c2c(cc(C(C)C)c1CC(=O)N=S(N)(=O)c1cnc(C(C)(C)O)s1)COC2 (single isomer, unassigned) [Example 289, (R) or (S)-N-(amino(2-(2-hydroxypropan-2-yl)thiazol-5-yl)(oxo)-λ^6-sulfaneylidene)-2-(4-ethyl-6-isopropyl-1,3-dihydroisobenzofuran-5-yl)acetamide]	5 to 30 µM
CCc1cc2c(c(C(C)C)c1CC(=O)N=S(N)(=O)c1cc(C(C)(C)O)cs1)COC2 (single isomer, unassigned) [Example 295, (R) or (S)-N-(amino(4-(2-hydroxypropan-2-yl)thiophen-2-yl)(oxo)-λ^6-sulfaneylidene)-2-(6-ethyl-4-isopropyl-1,3-dihydroisobenzofuran-5-yl)acetamide]	0.2 to 1 µM
CC(C)c1cc2c(c(C(C)C)c1CC(=O)N=S(N)(=O)c1cccc(C(C)(C)O)c1)COC2 (single isomer, unassigned) [Example 303, (R) or (S)-N-(amino(3-(2-hydroxypropan-2-yl)phenyl)(oxo)-λ^6-sulfaneylidene)-2-(4,6-diisopropyl-1,3-dihydroisobenzofuran-5-yl)acetamide]	1 to 5 µM
CC(C)c1cc(C(F)F)nc(C(C)C)c1CC(=O)N=S(N)(=O)c1sc(CN(C)C)cc1F (single isomer, unassigned) [Example 306, (R) or (S)-N-(amino(5-((dimethylamino)methyl)-3-fluorothiophen-2-yl)(oxo)-λ^6-sulfaneylidene)-2-(6-(difluoromethyl)-2,4-diisopropylpyridin-3-yl)acetamide]	0.2 to 1 µM
CC(C)c1cc2c(c(C(C)C)c1CC(=O)N=S(N)(=O)c1sc(CN(C)C)cc1F)COC2 (single isomer, unassigned) [Example 307, (R) or (S)-N-(amino(5-((dimethylamino)methyl)-3-fluorothiophen-2-yl)(oxo)-λ^6-sulfaneylidene)-2-(4,6-diisopropyl-1,3-dihydroisobenzofuran-5-yl)acetamide]	0.2 to 1 µM
CC(C)c1cc2c(c(C(C)C)c1CC(=O)N=S(N)(=O)c1cnn3c1OCCC3)COC2 (single isomer, unassigned) [Example 310, (R) or (S)-N-(amino (6,7-dihydro-5H-pyrazolo[5,1-b][1,3]oxazin-3-yl)(oxo)-λ^6-sulfaneylidene)-2-(4,6-diisopropyl-1,3-dihydroisobenzofuran-5-yl)acetamide]	1 to 5 µM

Now from value to molecule:

IC50	Structure (SMILES)
5 to 30 µM	CCc1cc2c(c(C(C)C)c1CC(=O)N=S(N)(=O)c1cnc(C(C)(C)O)s1)COC2 (single isomer, unassigned) [Example 291, (R) or (S)-N-(amino(2-(2-hydroxypropan-2-yl)thiazol-5-yl)(oxo)-λ^6-sulfaneylidene)-2-(6-ethyl-4-isopropyl-1,3-dihydroisobenzofuran-5-yl)acetamide]
1 to 5 µM	CC(C)c1cc2c(c(C(C)C)c1CC(=O)N=S(N)(=O)c1ccc(C(C)(C)O)cc1)COC2 (single isomer, unassigned) [Example 301, (R) or (S)-N-(amino(4-(2-hydroxypropan-2-yl)phenyl)(oxo)-λ^6-sulfaneylidene)-2-(4,6-diisopropyl-1,3-dihydroisobenzofuran-5-yl)acetamide]

same assay, conditions: Table B1; 2% fetal bovine serum; class symbols; read-out: hTHP-1 IC50 (Average IC50 of compounds in hTHP-1 assay)

Structure (SMILES)	IC50
CCc1c2c(cc(C(C)C)c1CC(=O)N=S(N)(=O)c1cc(C(C)(C)O)cs1)COC2 (single isomer, unassigned) [Example 294, (S) or (R)-N-(amino(4-(2-hydroxypropan-2-yl)thiophen-2-yl)(oxo)-λ^6-sulfaneylidene)-2-(4-ethyl-6-isopropyl-1,3-dihydroisobenzofuran-5-yl)acetamide]	5 to 30 µM
CCc1cc2c(c(C(C)C)c1CC(=O)N=S(N)(=O)c1sc(C(C)(C)O)cc1F)COC2 (single isomer, unassigned) [Example 297, (R) or (S)-N-(amino (3-fluoro-5-(2-hydroxypropan-2-yl)thiophen-2-yl)(oxo)-λ^6-sulfaneylidene)-2-(6-ethyl-4-isopropyl-1,3-dihydroisobenzofuran-5-yl)acetamide]	1 to 5 µM
CCc1c2c(cc(C(C)C)c1CC(=O)N=S(N)(=O)c1sc(C(C)(C)O)cc1F)COC2 (single isomer, unassigned) [Example 300, (R) or (S)-N-(amino (3-fluoro-5-(2-hydroxypropan-2-yl)thiophen-2-yl)(oxo)-λ^6-sulfaneylidene)-2-(4-ethyl-6-isopropyl-1,3-dihydroisobenzofuran-5-yl)acetamide]	0.2 to 1 µM
CC(C)c1ccc(F)c(C(C)C)c1CC(=O)N=S(N)(=O)c1cnn2c1OCCC2 (single isomer, unassigned) [Example 311, (S) or (R)-N-(amino (6,7-dihydro-5H-pyrazolo[5,1-b][1,3]oxazin-3-yl)(oxo)-λ^6-sulfaneylidene)-2-(3-fluoro-2,6-diisopropylphenyl) acetamide]	5 to 30 µM

Continued, values first:

IC50	Structure (SMILES)
0.2 to 1 µM	CCc1c2c(cc(C(C)C)c1CC(=O)N=S(N)(=O)c1cc(C(C)(C)O)cs1)COC2 (single isomer, unassigned) [Example 293, (R) or (S)-N-(amino(4-(2-hydroxypropan-2-yl)thiophen-2-yl)(oxo)-λ^6-sulfaneylidene)-2-(4-ethyl-6-isopropyl-1,3-dihydroisobenzofuran-5-yl)acetamide]
5 to 30 µM	CCc1cc2c(c(C(C)C)c1CC(=O)N=S(N)(=O)c1sc(C(C)(C)O)cc1F)COC2 (single isomer, unassigned) [Example 298, (S) or (R)-N-(amino(3-fluoro-5-(2-hydroxypropan-2-yl)thiophen-2-yl)(oxo)-λ^6-sulfaneylidene)-2-(6-ethyl-4-isopropyl-1,3-dihydroisobenzofuran-5-yl)acetamide]
5 to 30 µM	CCc1c2c(cc(C(C)C)c1CC(=O)N=S(N)(=O)c1sc(C(C)(C)O)cc1F)COC2 (single isomer, unassigned) [Example 299, (S) or (R)-N-(amino (3-fluoro-5-(2-hydroxypropan-2-yl)thiophen-2-yl)(oxo)-λ^6-sulfaneylidene)-2-(4-ethyl-6-isopropyl-1,3-dihydroisobenzofuran-5-yl)acetamide]
